Reference: patent US20240018123A1, “COMPOUND FOR INHIBITING OR DISINTEGRATING ANDROGEN RECEPTOR, AND PHARMACEUTICAL USE THEREOF” (KOREA RESEARCH INSTITUTE OF CHEMICAL TECHNOLOGY, priority 2020, published 2024)

These compounds were tested on VCaP cells (assay: Cytotoxicity assessment (Cell-titer-glo cell viability), VCaP). Conditions: read-out: VCaP (CC50); VCaP cells, 6 days of treatment, Cell-titer-glo, vs DMSO.

| SMILES | CC50 |
| --- | --- |
| CC1(C)C(NC(=O)c2ccc(N3CC4CN(CC5CCN(C(=O)COc6ccc7nnn(C8CCC(=O)NC8=O)c(=O)c7c6)CC5)CC4C3)cc2)C(C)(C)C1Oc1ccc(C#N)c(Cl)c1 (stereo not drawn) [Example 137, N-((1r,3r)-3-(3-chloro-4-cyanophenoxy)-2,2,4,4-tetramethylcyclobutyl)-4-(5-((1-(2-((3-(2,6-dioxopiperidin-3-yl)-4-oxo-3,4-dihydrobenzo[d][1,2,3]triazin-6-yl)oxy)acetyl)piperidin-4-yl)methyl)hexahydropyrrolo[3,4-c]pyrrol-2(1H)-yl)benzamide] | 94 nM |
| CC1(C)C(NC(=O)c2ccc(C#CC3CCN(c4ccc5nnn(C6CCC(=O)NC6=O)c(=O)c5c4)CC3)cc2)C(C)(C)C1Oc1ccc(C#N)c(Cl)c1 (stereo not drawn) [Example 142, N-((1r,3r)-3-(3-chloro-4-cyanophenoxy)-2,2,4,4-tetramethylcyclobutyl)-4-((1-(3-(2,6-dioxopiperidin-3-yl)-4-oxo-3,4-dihydrobenzo[d][1,2,3]triazin-6-yl)piperidin-4-yl)ethynyl)benzamide] | 7.1 nM |
| CC1(C)C(NC(=O)c2ccc(C#CC3CCN(C(=O)C4CN(c5ccc6nnn(C7CCC(=O)NC7=O)c(=O)c6c5)C4)CC3)cc2)C(C)(C)C1Oc1ccc(C#N)c(Cl)c1 (stereo not drawn) [Example 95, N-((1r,3r)-3-(3-chloro-4-cyanophenoxy)-2,2,4,4-tetramethylcyclobutyl)-4-((1-(1-(3-(2,6-dioxopiperidin-3-yl)-4-oxo-3,4-dihydrobenzo[d][1,2,3]triazin-6-yl)azetidine-3-carbonyl)piperidin-4-yl)ethynyl)benzamide] | 4.5 nM |
| CC1(C)C(NC(=O)c2ccc(C#CCC3CCN(CC4CCN(c5ccc6nnn(C7CCC(=O)NC7=O)c(=O)c6c5)CC4)CC3)nc2)C(C)(C)C1Oc1ccc(C#N)c(Cl)c1 (stereo not drawn) [Example 129, N-((1r,3r)-3-(3-chloro-4-cyanophenoxy)-2,2,4,4-tetramethylcyclobutyl)-6-(3-(1-((1-(3-(2,6-dioxopiperidin-3-yl)-4-oxo-3,4-dihydrobenzo[d][1,2,3]triazin-6-yl)piperidin-4-yl)methyl)piperidin-4-yl)prop-1-yn-1-yl)nicotinamide] | 19.4 nM |
| CC1(C)[C@H](NC(=O)c2ccc(N3CCN(Cc4cn(-c5ccc6nnn(C7CCC(=O)NC7=O)c(=O)c6c5)nn4)CC3)cc2)C(C)(C)[C@H]1Oc1ccc(C#N)c(Cl)c1 (stereo partly drawn) [Example 91, N-((1r,3r)-3-(3-chloro-4-cyanophenoxy)-2,2,4,4-tetramethylcyclobutyl)-4-(4-((1-(3-(2,6-dioxopiperidin-3-yl)-4-oxo-3,4-dihydrobenzo[d][1,2,3]triazin-6-yl)-1H-1,2,3-triazol-4-yl)methyl)piperazin-1-yl)benzamide] | 262 nM |
| CC1(C)C(NC(=O)c2ccc(C#CCC3CCN(CC4CCN(C(=O)CNc5ccc6nnn(C7CCC(=O)NC7=O)c(=O)c6c5)CC4)CC3)nc2)C(C)(C)C1Oc1ccc(C#N)c(Cl)c1 (stereo not drawn) [Example 128, N-((1r,3r)-3-(3-chloro-4-cyanophenoxy)-2,2,4,4-tetramethylcyclobutyl)-6-(3-(1-((1-((3-(2,6-dioxopiperidin-3-yl)-4-oxo-3,4-dihydrobenzo[d][1,2,3]triazin-6-yl)glycyl)piperidin-4-yl)methyl)piperidin-4-yl)prop-1-yn-1-yl)nicotinamide] | 11 nM |
| CC1(C)C(NC(=O)c2ccc(C#CC3CCN(CC4CCN(C(=O)CNc5ccc6nnn(C7CCC(=O)NC7=O)c(=O)c6c5)CC4)CC3)cc2)C(C)(C)C1Oc1ccc(C#N)c(Cl)c1 (stereo not drawn) [Example 98, N-((1r,3r)-3-(3-chloro-4-cyanophenoxy)-2,2,4,4-tetramethylcyclobutyl)-4-((1-((1-((3-(2,6-dioxopiperidin-3-yl)-4-oxo-3,4-dihydrobenzo[d][1,2,3]triazin-6-yl)glycyl)piperidin-4-yl)methyl)piperidin-4-yl)ethynyl)benzamide] | 6.72 nM |
| CC1(C)C(NC(=O)c2ccc(N3CC4CN(C(=O)COc5ccc6nnn(C7CCC(=O)NC7=O)c(=O)c6c5)CC4C3)cc2)C(C)(C)C1Oc1ccc(C#N)c(Cl)c1 (stereo not drawn) [Example 135, N-((1r,3r)-3-(3-chloro-4-cyanophenoxy)-2,2,4,4-tetramethylcyclobutyl)-4-(5-(2-((3-(2,6-dioxopiperidin-3-yl)-4-oxo-3,4-dihydrobenzo[d][1,2,3]triazin-6-yl)oxy)acetyl)hexahydropyrrolo[3,4-c]pyrrol-2(1H)-yl)benzamide] | ~10 nM |
| CC1(C)C(NC(=O)c2ccc(N3CC4CN(CC5CCN(C(=O)C6CCN(c7ccc8nnn(C9CCC(=O)NC9=O)c(=O)c8c7)CC6)CC5)CC4C3)cc2)C(C)(C)C1Oc1ccc(C#N)c(Cl)c1 (stereo not drawn) [Example 139, N-((1r,3r)-3-(3-chloro-4-cyanophenoxy)-2,2,4,4-tetramethylcyclobutyl)-4-(5-((1-(1-(3-(2,6-dioxopiperidin-3-yl)-4-oxo-3,4-dihydrobenzo[d][1,2,3]triazin-6-yl)piperidine-4-carbonyl)piperidin-4-yl)methyl)hexahydropyrrolo[3,4-c]pyrrol-2(1H)-yl)benzamide] | 69.5 nM |
| CC1(C)C(NC(=O)c2ccc(N3CCN(Cc4cn(C5CCN(c6ccc7nnn(C8CCC(=O)NC8=O)c(=O)c7c6)CC5)nn4)CC3)cc2)C(C)(C)C1Oc1ccc(C#N)c(Cl)c1 (stereo not drawn) [Example 105, N-((1r,3r)-3-(3-chloro-4-cyanophenoxy)-2,2,4,4-tetramethylcyclobutyl)-4-(4-((1-(1-(3-(2,6-dioxopiperidin-3-yl)-4-oxo-3,4-dihydrobenzo[d][1,2,3]triazin-6-yl)piperidin-4-yl)-1H-1,2,3-triazol-4-yl)methyl)piperazin-1-yl)benzamide] | 80.2 nM |
| CC1(C)C(NC(=O)c2ccc(-n3cc(CCOCCOCCNC(=O)C4CN(c5ccc6nnn(C7CCC(=O)NC7=O)c(=O)c6c5)C4)nn3)cc2)C(C)(C)C1Oc1ccc(C#N)c(Cl)c1 (stereo not drawn) [Example 157, N-(2-(2-(2-(1-(4-(((1r,3r)-3-(3-chloro-4-cyanophenoxy)-2,2,4,4-tetramethylcyclobutyl)carbamoyl)phenyl)-1H-1,2,3-triazol-4-yl)ethoxy)ethoxy)ethyl)-1-(3-(2,6-dioxopiperidin-3-yl)-4-oxo-3,4-dihydrobenzo[d][1,2,3]triazin-6-yl)azetidine-3-carboxamide] | 32.1 nM |
| CC1(C)C(NC(=O)c2ccc(C#CCC3CCN(CC4CCN(C(=O)C5CCN(c6ccc7nnn(C8CCC(=O)NC8=O)c(=O)c7c6)CC5)CC4)CC3)nc2)C(C)(C)C1Oc1ccc(C#N)c(Cl)c1 (stereo not drawn) [Example 126, N-((1r,3r)-3-(3-chloro-4-cyanophenoxy)-2,2,4,4-tetramethylcyclobutyl)-6-(3-(1-((1-(1-(3-(2,6-dioxopiperidin-3-yl)-4-oxo-3,4-dihydrobenzo[d][1,2,3]triazin-6-yl)piperidine-4-carbonyl)piperidin-4-yl)methyl)piperidin-4-yl)prop-1-yn-1-yl)nicotinamide] | 40 nM |
| CC1(C)C(NC(=O)c2ccc(C#CCC3CCN(CC4CCN(C(=O)C5CN(c6ccc7nnn(C8CCC(=O)NC8=O)c(=O)c7c6)C5)CC4)CC3)nc2)C(C)(C)C1Oc1ccc(C#N)c(Cl)c1 (stereo not drawn) [Example 127, N-((1r,3r)-3-(3-chloro-4-cyanophenoxy)-2,2,4,4-tetramethylcyclobutyl)-6-(3-(1-((1-(1-(3-(2,6-dioxopiperidin-3-yl)-4-oxo-3,4-dihydrobenzo[d][1,2,3]triazin-6-yl)azetidine-3-carbonyl)piperidin-4-yl)methyl)piperidin-4-yl)prop-1-yn-1-yl)nicotinamide] | 27 nM |
| CC1(C)C(NC(=O)c2ccc(C#CC3CCN(CC4CCN(C(=O)COc5ccc6nnn(C7CCC(=O)NC7=O)c(=O)c6c5)CC4)CC3)nc2)C(C)(C)C1Oc1ccc(C#N)c(Cl)c1 (stereo not drawn) [Example 133, N-((1r,3r)-3-(3-chloro-4-cyanophenoxy)-2,2,4,4-tetramethylcyclobutyl)-6-((1-((1-(2-((3-(2,6-dioxopiperidin-3-yl)-4-oxo-3,4-dihydrobenzo[d][1,2,3]triazin-6-yl)oxy)acetyl)piperidin-4-yl)methyl)piperidin-4-yl)ethynyl)nicotinamide] | 15 nM |
| CC1(C)C(NC(=O)c2ccc(-n3cc(CCNc4ccc5nnn(C6CCC(=O)NC6=O)c(=O)c5c4)nn3)cc2)C(C)(C)C1Oc1ccc(C#N)c(Cl)c1 (stereo not drawn) [Example 153, N-((1r,3r)-3-(3-chloro-4-cyanophenoxy)-2,2,4,4-tetramethylcyclobutyl)-4-(4-(2-((3-(2,6-dioxopiperidin-3-yl)-4-oxo-3,4-dihydrobenzo[d][1,2,3]triazin-6-yl)amino)ethyl)-1H-1,2,3-triazol-1-yl)benzamide] | 45.4 nM |
| CC1(C)C(NC(=O)c2ccc(N3CCN(CC4CCN(CCNC(=O)CNc5ccc6nnn(C7CCC(=O)NC7=O)c(=O)c6c5)CC4)CC3)cc2)C(C)(C)C1Oc1ccc(C#N)c(Cl)c1 (stereo not drawn) [Example 59, N-((1r,3r)-3-(3-chloro-4-cyanophenoxy)-2,2,4,4-tetramethylcyclobutyl)-4-(4-((1-(2-(2-((3-(2,6-dioxopiperidin-3-yl)-4-oxo-3,4-dihydrobenzo[d][1,2,3]triazin-6-yl)amino)acetamido)ethyl)piperidin-4-yl)methyl)piperazin-1-yl)benzamide] | ~1000 nM |
| CC1(C)C(NC(=O)c2ccc(C#CC3CCN(CC4CCN(C(=O)C5CCN(c6ccc7nnn(C8CCC(=O)NC8=O)c(=O)c7c6)CC5)CC4)CC3)nc2)C(C)(C)C1Oc1ccc(C#N)c(Cl)c1 (stereo not drawn) [Example 130, N-((1r,3r)-3-(3-chloro-4-cyanophenoxy)-2,2,4,4-tetramethylcyclobutyl)-6-((1-((1-(1-(3-(2,6-dioxopiperidin-3-yl)-4-oxo-3,4-dihydrobenzo[d][1,2,3]triazin-6-yl)piperidine-4-carbonyl)piperidin-4-yl)methyl)piperidin-4-yl)ethynyl)nicotinamide] | 17 nM |
| CC1(C)C(NC(=O)c2ccc(-n3cc(CN4CCN(c5ccc6nnn(C7CCC(=O)NC7=O)c(=O)c6c5)CC4)nn3)cc2)C(C)(C)C1Oc1ccc(C#N)c(Cl)c1 (stereo not drawn) [Example 120, N-((1r,3r)-3-(3-chloro-4-cyanophenoxy)-2,2,4,4-tetramethylcyclobutyl)-4-(4-((4-(3-(2,6-dioxopiperidin-3-yl)-4-oxo-3,4-dihydrobenzo[d][1,2,3]triazin-6-yl)piperazin-1-yl)methyl)-1H-1,2,3-triazol-1-yl)benzamide] | 29.7 nM |
